US20100137315A1, “Sphingosine Kinase Inhibitors and Methods of Their Use” (APOGEE BIOTECHNOLOGY CORPORATION, priority 2005, published 2010)
Read-outs that look alike come from different tables or passages of the source.

Columns and labels:
[1] = Oral pharmacokinetics in mice; format: in vivo; settings: mouse, whole blood; for AUC(0-inf): 100 mg/kg oral gavage in PEG400, female Swiss-Webster mice, blood
Experimental: Oral pharmacokinetic studies were performed on Compound 8. The compound was dissolved in PEG400 and administered to female Swiss-Webster mice at a dose of 100 mg/kg by oral gavage. Mice were anesthetized and blood was removed via cardiac puncture at 5 minutes, 30 minutes, 1, 2, and 8 hours. Concentrations of the test compounds were determined using liquid-liquid extraction, appropriate internal standards and reverse phase HPLC with UV detection. Control blood samples were run to identify compound-specific peaks. Pharmacokinetic parameters were calculated using the WINNONLIN analysis software package (Pharsight). Non-compartmental and compartmental models were tested, with the results shown in Table 8 derived from the best fit equations.

[2] = tested on: IEC6 rat intestinal epithelial cells; assay: TNFα-induced PGE2 production (Cox-2 activity), ELISA; format: cell-based; settings: 100 ng TNFα/mL, 18 hours, 10 μg/mL compound
Experimental: (§1) FIG. 3. Inhibition of TNFα-induced Cox-2 activity by Compound 8. Rat IEC6 cells (Panel A) or human endothelial cells (Panel B) were incubated for 18 hours with dimethylsulfoxide (DMSO) as a solvent control, or 100 ng of TNFα/mL in the presence of DMSO or 10 μg/mL of Compound 8. Levels of PGE2 secreted into the medium were quantified by ELISA. Values represent the mean±sd for triplicate samples in a typical experiment.
(§2) To determine the effects of the SK inhibitors on Cox-2 activity, an ELISA assay was used to measure PGE2 production by IEC6 rat intestinal epithelial cells and human endothelial cells treated with TNFα.

[3] = tested on: human endothelial cells; assay: as above; format: cell-based; settings: 100 ng TNFα/mL, 18 hours, 10 μg/mL compound
Experimental: as §1, §2

[4] = tested on: mice; assay: Chronic DSS-colitis model of IBD (35-day); format: in vivo, mouse
Experimental: FIG. 8. Effects of Compound 8 on the […] (DAI) in the chronic DSS-colitis model. Mice received 2 cycles (7 days per cycle) of DSS (1.5% cycle 1 and 1% cycle 2), 2 cycles of normal drinking water and were randomized by DAI on Day 28 into groups of 8 mice. The mice were then treated as follows: No DSS (▪)— normal drinking water and orally dosed with PEG400 every day for 7 days (water control); DSS alone (▴)— drinking water containing 1.5% DSS and orally dosed with PEG daily for 7 days; DSS+Compound 8 (▾)-drinking water containing 1.5% DSS and orally dosed with Compound 8 (50 mg/kg) every day for 7 days; DSS+Dipentum (♦)— drinking water containing 1.5% DSS and orally dosed with Dipentum (50 mg/kg). *p<0.001 versus No DSS group.
FIG. 9. Effects of Compound 8 on S1P levels in the colons of the animals in the chronic DSS-colitis model. Colon samples from mice described in FIG. 8 were extracted and assayed for the levels of S1P by LC/MS/MS. Values represent the mean±sd for 8 samples per group; * p<0.05 versus No DSS group.
A 35-day model of IBD was used to evaluate the effectiveness of the SK inhibitor in mice that experience multiple cycles of DSS-induced inflammation. This chronic model is similar to the acute model, except that the DSS concentration in the drinking water is lower and animals receive periodic exposure to DSS (DSS on days 1-7, water on Days 8-13, DSS on day 14-21, water on Days 22-27 and then DSS until the completion of the study on Day 35). In these experiments, treatment of the mice with an SK inhibitor or Dipentum began on Day 28 and continued daily until the completion of the study. The DAI index was monitored every other day until Day 28 and then daily until Day 35. Animals were sacrificed on Day 35, and changes in the colon length and cytokine profiles were measured.
As a final measure of the effects of the SK inhibitors in this chronic model, S1P levels were assayed in the colons of the DSS-treated animals using an LC-MS/MS method. […] Ratios of analyte to internal standard for each sphingolipid were determined. […]

[5] = tested on: female DBA/1 mice; assay: Collagen-Induced Arthritis model; format: in vivo, mouse; settings: 50 mg/kg orally
Experimental: FIG. 10. Effects of Compound 8 on disease progression in the collagen-induced arthritis (CIA) model in mice. Female DBA/1 mice were injected with collagen, boosted after 3 weeks and then monitored for symptoms of arthritis. Upon disease manifestation, groups of mice were treated for 12 days as follows: (▴) Compound 8 (50 mg/kg given orally each day for 6 days per week); or (▪) vehicle (PEG400 given under the same schedule). On the indicated Day of treatment, the average clinical score (A) and the average hind paw diameter (B) was determined. * p<0.05 versus PEG400 alone group.
The anti-arthritis activities of the SK inhibitor Compound 8 were assessed in the Collagen-Induced Arthritis model. Female DBA/1 mice were injected subcutaneously in the tail with chicken immunization-grade type II collagen emulsified in complete Freund's adjuvant at 2 mg/mL. Three weeks later, the mice received a collagen booster in incomplete Freund's adjuvant and were monitored daily thereafter for arthritic symptoms. Once mice reached a threshold paw thickness and clinical score, they were randomized into the following treatment groups: Compound 8 (50 mg/kg given orally each day for 6 days per week) or vehicle (Polyethyleneglycol 400 given under the same schedule). The severity of disease in each animal was quantified by measurement of the hind paw volume with digital calipers. Each paw was scored based upon perceived inflammatory activity, in which each paw receives a score of 0-3 as follows: 0=normal; 1=mild, but definite redness and swelling of the ankle or wrist, or apparent redness and swelling limited to individual digits, regardless of the number of affected digits; 2=moderate redness and swelling of the ankle and wrist and 3=severe redness and swelling of the entire paw including digits, with an overall score ranging from 0-12. Differences among treatment groups were tested using ANOVA.
On Day 12, the mice were euthanized and their hind limbs were removed, stripped of skin and muscle, formalin-fixed, decalcified and paraffin-embedded. The limbs were then sectioned and stained with hematoxylin/eosin. Tibiotarsal joints were evaluated histologically for severity of inflammation and synovial hyperplasia.

[6] = female, Swiss-Webster, 100 mg/kg oral gavage, mice

CCCC(=O)Oc1ccc(C=CC(=O)Nc2nc(-c3ccc(Cl)cc3)cs2)cc1OC [Compound 8, Butyric acid 4-{2-[4-(4-chloro-phenyl)-thiazol-2-ylcarbamoyl]-vinyl}-2-methoxy-phenyl ester]
Cmax [1, 6]: 34.4 µM | Tmax [1, 6]: 1 h | half-life [1, 6]: 31.9 h | AUC(0-inf) ([1]; read-out: AUC0 → ∞ (μM*h)): 1500 µM·h | AUC(0-inf) ([1]; read-out: AUC0 → ∞ (μg*h/mL)): 475 µg·h/mL | TNFα-induced Cox-2 activity (PGE2 production) [2]: strongly suppressed | TNFα-induced Cox-2 activity (PGE2 production) [3]: strongly suppressed | colon length ([4]; 50 mg/kg oral daily Days 28-35, Day 35): 5.8±0.1 cm | increase in DAI during third DSS exposure ([4]; 50 mg/kg oral daily Days 28-35, P<0.001 on Day 35): significantly suppressed | S1P levels in colon (LC-MS/MS) ([4]; oral 50 mg/kg daily, 7 days prior to sacrifice): significant reductions | reduction in clinical score vs vehicle ([5]; 6 days per week, Day 12): 65% | reduction in the increase in hind paw thickness vs vehicle ([5]; 6 days per week, Day 12): 72% | histologic damage of tibiotarsal joints ([5]; Day 12): significantly reduced | inflammation response (Average Clinical Score, Average Hind Paw Diameter) ([5]; significant decreases beginning at Day 4): dramatically slowed
